Source: article PMC3398407 (The Journal of Neuroscience, 2012)
Where “and” joins values, the source holds several entries; their conditions need not be identical. Equal entries are not always repeated. Where two headings read alike, the source gives them in different places.

Legend:
[1] = tested on: mPFC layer V pyramidal neurons; assay: Whole-cell voltage clamp recordings of sEPSCs in mPFC layer V pyramidal neurons; set-up: species or system mice; conditions: mouse mPFC slices; for effect on sEPSC frequency / interevent interval (IEI): 100 μM
[2] = tested on: striatal medium spiny neurons (MSNs); set-up: species or system rats
[3] = tested on: Schaffer collateral-CA1 synapse; assay: Muscarinic long-term depression; conditions: 10 minutes, rat hippocampal slices
[4] = tested on: Sprague-Dawley rats; assay: Acquisition of contextual fear conditioning; type: in vivo, rat; conditions: vs vehicle
[5] = molecular target: T1, human M1 mAChR (Homo sapiens, UniProt P11229); assay: Calcium mobilization in TET-inducible hM1 TREx CHO cells
T1 sequence (P11229 1-460): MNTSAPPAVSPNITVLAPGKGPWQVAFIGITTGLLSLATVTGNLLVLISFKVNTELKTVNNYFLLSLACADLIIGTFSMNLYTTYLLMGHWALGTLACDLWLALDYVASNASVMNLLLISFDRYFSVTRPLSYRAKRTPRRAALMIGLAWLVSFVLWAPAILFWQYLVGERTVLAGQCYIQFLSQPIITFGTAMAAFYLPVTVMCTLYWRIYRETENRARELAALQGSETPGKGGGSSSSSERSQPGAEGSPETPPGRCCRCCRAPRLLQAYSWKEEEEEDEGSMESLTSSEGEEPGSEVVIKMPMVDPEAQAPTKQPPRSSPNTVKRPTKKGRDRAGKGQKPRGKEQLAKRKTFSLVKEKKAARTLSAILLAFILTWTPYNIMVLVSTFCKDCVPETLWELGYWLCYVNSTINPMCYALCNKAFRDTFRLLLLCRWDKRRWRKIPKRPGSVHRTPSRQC

[6] = molecular target: β3-adrenergic receptors (Homo sapiens, UniProt P13945); assay: GPCRProfiler calcium assay, β3; type: cell-based; conditions: 10 μM compound
β3-adrenergic receptors, sequence (P13945 whole entry): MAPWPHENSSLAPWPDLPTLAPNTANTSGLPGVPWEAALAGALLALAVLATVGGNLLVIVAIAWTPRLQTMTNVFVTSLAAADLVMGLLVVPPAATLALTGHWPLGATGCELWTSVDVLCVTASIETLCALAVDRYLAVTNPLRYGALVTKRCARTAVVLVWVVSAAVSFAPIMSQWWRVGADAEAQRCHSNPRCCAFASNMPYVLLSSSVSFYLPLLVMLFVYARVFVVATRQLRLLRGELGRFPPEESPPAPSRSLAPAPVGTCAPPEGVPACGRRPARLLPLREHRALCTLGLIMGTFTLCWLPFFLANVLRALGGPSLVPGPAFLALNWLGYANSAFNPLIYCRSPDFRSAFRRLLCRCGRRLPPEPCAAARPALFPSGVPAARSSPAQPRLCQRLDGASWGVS

[7] = tested on: Sprague-Dawley rats; assay: Morris water maze; type: in vivo, rat
[8] = tested on: Schaffer collateral-CA1 synapse in rat hippocampus; conditions: 500 nM bath applied 10 minutes prior to threshold TBS; rat hippocampal slices
[9] = molecular target: T1, human M1 mAChR; assay: Confocal imaging of β-arrestin2-YFP recruitment in hM1 TREx CHO cells; type: cell-based; conditions: agonist 100 μM
[10] = molecular target: T2, hM1 receptors (Homo sapiens, UniProt P11229); assay: β-arrestin recruitment, PathHunter Express hM1 CHO cells; type: cell-based
T2 sequence (P11229 1-460): T1 sequence (P11229 1-460)

[11] = tested on: 168 G protein coupled receptors (GPCRs); assay: GPCRProfiler calcium assay, agonist mode, other GPCRs; type: cell-based; conditions: 10 μM compound
[12] = molecular target: T3, human M1 receptors (Homo sapiens, UniProt P11229); assay: ERK1/2 phosphorylation; type: cell-based; conditions: hM1 CHO cells, 5 min agonist; for EC50: read-out: ERK EC50
T3 sequence (P11229 1-460): T1 sequence (P11229 1-460)

[13] = molecular target: T1, human M1 mAChR; assay: ERK1/2 phosphorylation in TET-inducible hM1 TREx CHO cells; type: cell-based
[14] = molecular target: T4, M1 muscarinic receptors (Homo sapiens, UniProt P11229); assay: GPCRProfiler calcium assay, agonist mode, M1; type: cell-based; conditions: 10 μM compound
T4 sequence (P11229 1-460): T1 sequence (P11229 1-460)

[15] = molecular target: T5, D4 dopamine receptors (Homo sapiens, UniProt P21917); assay: GPCRProfiler calcium assay, D4; type: cell-based; conditions: 10 μM compound
T5 sequence (P21917 1-419): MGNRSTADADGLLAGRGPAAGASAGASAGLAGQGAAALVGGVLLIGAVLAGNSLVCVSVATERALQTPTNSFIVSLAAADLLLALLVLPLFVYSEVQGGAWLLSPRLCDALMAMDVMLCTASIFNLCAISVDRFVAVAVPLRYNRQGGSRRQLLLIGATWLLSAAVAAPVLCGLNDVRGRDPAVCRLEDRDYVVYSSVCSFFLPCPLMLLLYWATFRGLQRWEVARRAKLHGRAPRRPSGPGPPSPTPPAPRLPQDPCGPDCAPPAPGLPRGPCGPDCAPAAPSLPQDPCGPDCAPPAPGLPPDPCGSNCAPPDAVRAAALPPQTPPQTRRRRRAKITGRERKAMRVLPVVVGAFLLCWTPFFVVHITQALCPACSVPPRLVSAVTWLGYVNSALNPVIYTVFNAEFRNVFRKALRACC

[16] = molecular target: T3, human M1 receptors; assay: Calcium mobilization in hM1 CHO cells; conditions: for Ca release % CCh max: Emax normalized to maximum CCh response; for EC50: read-out: Ca release EC50
[17] = tested on: rats; assay: Amphetamine-induced hyperlocomotion; type: in vivo, rat; conditions: 3–56.6 mg/kg i.p. 30 minutes prior to amphetamine
[18] = tested on: D3 receptors; conditions: ref Lebois et al., 2011; cited from earlier work
[19] = read-out: Ca EC50, TET 10 ng/mL
[20] = read-out: Ca EC50, TET 25 ng/mL
[21] = read-out: Ca EC50, TET 50 ng/mL
[22] = i.p., treated groups vs controls
[23] = read-out: ERK EC50, TET 50 ng/mL
[24] = read-out: ERK EC50, TET 1 μg/mL

SMILES	effect on sEPSC frequency / interevent interval (IEI) [1]	induction of LTD of fEPSP slope ([3]; 30 μM)	excitatory effect in MSNs (number of spikes per depolarization pulse) ([2]; 30 μM)	Ca % CCh max ([5]; TET 0 ng/mL)	Ca % CCh max ([5]; TET 10 ng/mL)	Ca % CCh max ([5]; TET 25 ng/mL)	Ca % CCh max ([5]; TET 50 ng/mL)	Ca % CCh max ([5]; TET 1 μg/mL)	EC50 [5, 19]	EC50 [5, 20]	EC50 [5, 21]	EC50 ([5]; read-out: Ca EC50, TET 1 μg/mL)	potentiation of threshold TBS LTP (fEPSP slope) [8]	β-arrestin2-YFP recruitment (confocal) ([9]; TET 50 ng/mL overnight)	β-arrestin2-YFP recruitment (confocal) ([9]; TET 1 μg/mL overnight)	effect on β-arrestin recruitment [10]	ERK % CCh max [12]	EC50 [12]	ERK % CCh max ([13]; TET 0 ng/mL)	ERK % CCh max ([13]; TET 25 ng/mL)	also measured
C[N+](C)(C)CCOC(N)=O [CCh, carbachol, reference compound]	robust increase in sEPSC frequency	without effect	–	–	–	–	–	–	–	–	–	–	–	–	–	–	–	–	–	–	concentration required for induction of the PFC response [1]: > 50 µM; excitatory effect in MSNs (number of spikes per depolarization pulse) ([2]; 10 μM): robust excitatory effect; induction of LTD of fEPSP slope ([3]; 50 μM): induced robust LTD
CCOC(=O)N1CCC(NCCNC(=O)c2ccccc2C)CC1.Cl [VU0357017]	no significant effect on IEI	did not induce a significant LTD response	very weak efficacy in inducing excitatory effects	8.24 % CCh max	7.21 % CCh max	24.5 % CCh max	60.4 % CCh max	75.3 % CCh max	16 µM	16 µM	1.6 µM	0.69 µM	significant potentiation of fEPSP slope	no effect on β-arrestin recruitment	did not induce β-arrestin2 recruitment	little or no effect on β-arrestin recruitment	37.9 % CCh max	37 µM	27.4 % CCh max	50.3 % CCh max	acquisition of contextual fear (duration of freezing) ([4]; 0.1, 0.3, 0.56, 1, and 3 mg/kg i.p. 30 min before conditioning): robust improvements in acquisition of contextual fear; agonist Ca response at β3 [6]: very small responses; overnight memory retention [7, 22]: did not differ from controls; platform crossing on the probe trial [7, 22]: did not differ from controls; swim path distance from days 4 to 5 [7, 22]: did not differ from controls; agonist activity at other receptor subtypes [11]: little activity; ERK % CCh max ([13]; TET 50 ng/mL): 45.9 % CCh max; ERK % CCh max ([13]; TET 1 μg/mL): 30.3 % CCh max; EC50 [13, 23]: 35.9 µM; EC50 [13, 24]: 3.17 µM; agonist Ca response at M1 [14]: induced a significant response; agonist Ca response at D4 [15]: very small responses; Ca release % CCh max [16]: 41.7 ± 2.37 % CCh max and 41.7 % CCh max; EC50 [16]: 1.6 µM; reversal of amphetamine-induced hyperlocomotion [17]: fails to reverse hyperlocomotion
CCOC(=O)N1CCC(N2CCC[C@@H](NC(=O)c3ccccc3C)C2)CC1 [VU0364572]	no significant effect on IEI	induced robust LTD	relatively weak excitatory effect	44.2 % CCh max	39.9 % CCh max	68.1 % CCh max	78.1 % CCh max	86.2 % CCh max	146 µM	2.3 µM	1 µM	0.5 µM	significant potentiation of fEPSP slope	no effect on β-arrestin recruitment	did induce responses	little or no effect on β-arrestin recruitment	90.5 % CCh max	10 µM	56.4 % CCh max	50.6 % CCh max	concentration required to induce effects at D3 receptors [18]: greater than 10 μM; inhibition of binding at D3 receptors [18]: 10%; acquisition of contextual fear (freezing) ([4]; 0.056, 0.3, and 0.56 mg/kg i.p. 30 min before conditioning): improved acquisition of contextual fear learning; EC50 ([5]; read-out: Ca EC50, TET 0 ng/mL): 30.5 µM; swim distance, day 5 ([7]; 0.1 mg/kg and 10 mg/kg i.p. 30 min prior to first trial, vs vehicle): decreased swim distance; overnight memory retention day 4 to day 5 ([7]; 0.1 mg/kg i.p., vs vehicle): enhanced overnight memory retention; platform crossings during first 30 seconds of probe trial ([7]; 0.1 mg/kg i.p., vs vehicle): increased platform crossings; swim distance, day 4 ([7]; 0.1 mg/kg i.p., vs vehicle): enhancement; ERK % CCh max ([13]; TET 50 ng/mL): 52.6 % CCh max; ERK % CCh max ([13]; TET 1 μg/mL): 49.3 % CCh max; EC50 ([13]; read-out: ERK EC50, TET 0 ng/mL): 108 µM; EC50 ([13]; read-out: ERK EC50, TET 25 ng/mL): 9.88 µM; EC50 [13, 23]: 9.44 µM; EC50 [13, 24]: 3.3 µM; Ca release % CCh max [16]: 70.8 % CCh max; EC50 [16]: 0.89 µM; reversal of amphetamine-induced hyperlocomotion [17]: fails to reverse this response
